Measured values from patent publication US11278550B2, “Compositions and methods for the treatment of Prader-Willi syndrome” (Duke University, priority 2016, dated 2022).
“Also recorded” adds a separate entry of the source.

Tests used:
[1] = system: human PWS fibroblast cells; test: Cell viability (CellTox Green Cytotoxicity Assay); format: cell-based; settings: 1-4 μM, 72 hours
Experimental: Cell viability was measured by fluorescence using CellTox™ Green Cytotoxicity Assay (Promega, cat. no. G8741) according to the manufacturer's instructions.

human PWS fibroblasts = test: Chromatin immunoprecipitation (ChIP-qPCR) of H3K9me2/H3K9me3; format: cell-based
Experimental: Histone methylations on the SNRPN locus in human fibroblasts were analyzed by chromatin immunoprecipitation assay (ChIP) using the protocol as previously reported (see Fulmer-Smentek et al., Human molecular genetics 10, 645-652 (2001)). ChIP assay was performed using ChIP-IT Express magnetic kit (Active Motif) according to the manufacturer's instructions with modification for the fixation and reverse-crosslinking steps. Briefly, native chromatin was prepared without fixation and enzymatic digestions to average 150-500 bp sized chromatin. 20 μg of chromatin was added to the specific antibodies (2 μg) or species control isotype antibodies for each immunoprecipitation reaction. The antibody-chromatin complexes were bound to protein G magnetic beads for recovering chromatin immunoprecipitates. RNase- and proteinase K-treated DNA was purified using PCR purification columns (Promega). DNA recovery was quantified by real time PCR performed on the LightCycler480 instrument (Roche) using SsoAdvanced Universal SYBR green Supermix (Biorad). Antibodies were anti-rabbit acetylated H3 (Millipore 06-599), anti-mouse monoclonal Histone H3 dimethyl K9 (Abcam 1220) and Histone H3 trimethyl K9 (Millipore, 07-442) antibodies. qPCR reactions were performed with the following cycling parameters: at 95° C./5 min followed by 40 cycles of 95° C./30 sec, 60° C./60 sec. Data was normalized to the total input.

PWS-IC [2] = test: Bisulfite genomic sequencing of PWS-IC, human PWS cells; format: cell-based
Experimental: (§1) Genomic DNA was isolated from human PWS fibroblasts or mouse tissues. DNA (1 μg) was then treated by bisulfite using the Epi-Tect bisulfite kit (Qiagen), and 125 ng input DNA was used per PCR amplification. PCR products were sub-cloned into pGEM-T easy vector (Promega) and an average of 15 clones were sequenced. DNA sequencing results were analyzed using BISMA web-based analysis platform with a setting for individual clones with <95% bisulfite conversion and <90% sequence identity to be excluded in the analysis.

PWS-IC [3] = test: Bisulfite genomic sequencing of PWS-IC, liver of PWS mice; format: in vivo; settings: livers from PWS mouse models
Experimental: as §1

m+/pΔS-U and WT mice = test: Toxicity evaluation in mice (body weight, neurological screening, blood, histopathology); format: in vivo, mouse
Experimental: Brain, liver, lung, kidney and heart tissues from 3-month-old mice were fixed in 10% neutral buffered formalin (NBF: 10 ml of Formalin (37% stock), 90 ml of deionized water, 4 g/liter of NaH2PO4, 6.5 g/liter Na2HPO4), embedded in paraffin, sectioned at 5 μm, stained with hematoxylin and eosin, and images examined by a board-certified toxicological pathologist.
Blood was collected from 3-month-old mice into microcontainers or hematology assay tubes using jugular vein bleeding puncture. A serum metabolic panel was obtained using the Heska Dry Chem analyzer (Cuattro Veterinary USA). The metabolic panel contained chem and electrolyte, liver and kidney functions. For hematology analysis, we tested whole blood using Procyte (IDEXX).
General health of mice was evaluated using a modified version of standard test battery for behavioral phenotyping (see 57). Observational assessment included the evaluation of body weight, body core temperature, overt behavioral signs (coat appearance, body posture and secretary signs) and sensory functions (visual ability, audition, tactile percep- tion and vestibular function). Table 6 indicates the mouse sex and age information.

m+/pΔS-U mice [4] = test: Survival and growth in PWS mouse model; format: in vivo; settings: between P10 and P19, treated m+/pΔS-U pups
Experimental: The dosage and duration vary depending on the age and condition of animals.
The m/p^ΔS-U pups were treated between postnatal day 7 (P7) and P12, as most m^+/p^ΔS-U pups died before weaning. For neonatal PWS mice, a lower dose regimen of 2.5 mg/kg i.p. injections for 5 consecutive days was used. […] Pups at postnatal day 7 (P7) were treated with a daily dose of 2.5 mg/kg for 5 days.

m+/pΔS-U mice [5] = test: RNA and protein expression in PWS mouse tissues; format: in vivo
Experimental: For testing long lasting drug effects, the 6 week-old m^S-EGFP/p^+ mice were treated daily by i.p. injection for seven consecutive days.
Western blot analysis was performed as previously described by Wang, et al., Molecular Autism 5, 30 (2014). Briefly, total protein was extracted from collected tissues (liver and brain) using modified RIPA buffer (1× PBS, 1% Triton X-100, 0.1% SDS, 2 mM EDTA, and protease inhibitors). SDS-PAGE resolved 25 μg of total proteins and they were transferred to polyvinylidene difluoride (PVDF) membranes. The PVDF membranes were blocked with BLOTTO (5% skim milk and 0.1% Tween-20 in 1× TBS buffer), and incubated with primary target antibodies, rabbit anti-Snrpn (Protein Tech, cat. no. 11070-1-AP) at 1:400, and rabbit anti-Ube3a (Bethyl Lab, cat. no. A300-352A-T) at 1:1,000 working concentration in BLOTTO at 4° C. overnight. The next day, following incubation with horseradish peroxidase-conjugated secondary antibodies, the membranes were incubated with a Pierce chemiluminescent substrate and exposed to X-ray film or imaged by AI600 (GE Healthcare Life Science).
For reverse-transcription PCR (RT-PCR) and quantitative real time RT-PCR (qRT-PCR), first total RNA was extracted from the fibroblasts and/or collected tissues (liver and brain) using Direct-zol RNA Miniprep kit (Zymo Research cat. no. R2070). 2 μg of total RNA was directly used for single strand cDNA synthesis with Superscript III reverse transcriptase (Invitrogen cat. no. 18080-093) according to the manufacturer's protocols. The conditions for RT-PCR were 95° C./5 min, 35-40 cycles of 95° C./30 sec, 56-60° C./60 sec, 72° C./60 sec. Quantification of target gene expression was performed in a LightCycler480 instrument (Roche) using SsoAdvanced Universal SYBR green Supermix (Biorad cat. no. 172-5271) according to the manufacturer's instructions. See Table 4 for primer sequences and conditions used for experiments for RT-PCR, qRT-PCR, bisulfite genomic sequencing, ChIP-qPCR, and chromatin accessibility assay.

Row | SMILES | cytotoxicity [1] | H3K9me2 in the region associated with NDN (human PWS fibroblasts) | H3K9me2 enriched at the PWS-IC after treatment (human PWS fibroblasts; ChIP-qPCR, reduction from 17-fold untreated, p<0.05) [fold] | H3K9me3 at host transcript of SNORD116 after treatment (human PWS fibroblasts; ChIP-qPCR, reduction from 24-fold untreated, p<0.05) [fold] | H3K9me2 at host transcript of SNORD116 after treatment (human PWS fibroblasts; ChIP-qPCR, reduction from 122-fold untreated, p<0.05) [fold] | level of H3K9me2 (and H3K9me3) in the PWS-IC (human PWS fibroblasts; in words) | DNA methylation of the PWS-IC (PWS-IC [2]) | DNA methylation of the PWS-IC (PWS-IC [3]) | loss of body weight (m+/pΔS-U and WT mice; WT mice) | general health and neurological screening (m+/pΔS-U and WT mice; blinded) | histopathological analyses (m+/pΔS-U and WT mice; brain, liver, kidney, lung and heart, P90 / 3 months) | hematological analysis (liver and kidney functions, lipid and protein metabolism) (m+/pΔS-U and WT mice; treated m+/pΔS-U and WT mice) | growth (body weight) (m+/pΔS-U mice [4]) | level of Ube3a-AS RNA (m+/pΔS-U mice [5]; brain) | expression of Snrpn and Snord116 (m+/pΔS-U mice [5]; brain and liver, around P14, RT-PCR and qRT-PCR) | Ube3a protein level (m+/pΔS-U mice [5]; whole brain and cerebellum)
1 | COc1cc2c(NC3CCN(C(C)C)CC3)nc(C3CCCCC3)nc2cc1OCCCN1CCCC1 [UNC0638] | minimal cytotoxicity | reduced | 3 | 2 | 4 | drastically reduced | did not significantly alter |  |  |  |  |  |  |  |  | 
2 | COc1cc2c(NC3CCN(C(C)C)CC3)nc(N3CCC(F)(F)CC3)nc2cc1OCCCN1CCCC1 [UNC0642] |  |  |  |  |  |  |  | did not significantly alter | not observed | did not reveal any substantial abnormalities | did not reveal any abnormalities; also recorded: no significant compound related lesions | within normal ranges | significant improvement of growth | not affected | readily detectable | not changed; also recorded: not affected
